In patent US20200048267A1, “OGA INHIBITOR COMPOUNDS” (Janssen Pharmaceutica NV, priority 2017, published 2020):

Columns and labels:
[1] = target: T1, recombinant human Meningioma Expressed Antigen 5 (MGEA5), also referred to as O-GlcNAcase (OGA) (Homo sapiens, UniProt O60502); assay: OGA biochemical assay (inhibition of FM-GlcNAc hydrolysis, fluorescence); settings: for Emax: read-out: ENZYMATIC Emax (%); for IC50: read-out: ENZYMATIC hOGA, pIC50 (converted)
T1 construct: Full length OGA enzyme was purchased at OriGene (cat # TP322411); purchased OriGene TP322411
T1 sequence (O60502 1-916): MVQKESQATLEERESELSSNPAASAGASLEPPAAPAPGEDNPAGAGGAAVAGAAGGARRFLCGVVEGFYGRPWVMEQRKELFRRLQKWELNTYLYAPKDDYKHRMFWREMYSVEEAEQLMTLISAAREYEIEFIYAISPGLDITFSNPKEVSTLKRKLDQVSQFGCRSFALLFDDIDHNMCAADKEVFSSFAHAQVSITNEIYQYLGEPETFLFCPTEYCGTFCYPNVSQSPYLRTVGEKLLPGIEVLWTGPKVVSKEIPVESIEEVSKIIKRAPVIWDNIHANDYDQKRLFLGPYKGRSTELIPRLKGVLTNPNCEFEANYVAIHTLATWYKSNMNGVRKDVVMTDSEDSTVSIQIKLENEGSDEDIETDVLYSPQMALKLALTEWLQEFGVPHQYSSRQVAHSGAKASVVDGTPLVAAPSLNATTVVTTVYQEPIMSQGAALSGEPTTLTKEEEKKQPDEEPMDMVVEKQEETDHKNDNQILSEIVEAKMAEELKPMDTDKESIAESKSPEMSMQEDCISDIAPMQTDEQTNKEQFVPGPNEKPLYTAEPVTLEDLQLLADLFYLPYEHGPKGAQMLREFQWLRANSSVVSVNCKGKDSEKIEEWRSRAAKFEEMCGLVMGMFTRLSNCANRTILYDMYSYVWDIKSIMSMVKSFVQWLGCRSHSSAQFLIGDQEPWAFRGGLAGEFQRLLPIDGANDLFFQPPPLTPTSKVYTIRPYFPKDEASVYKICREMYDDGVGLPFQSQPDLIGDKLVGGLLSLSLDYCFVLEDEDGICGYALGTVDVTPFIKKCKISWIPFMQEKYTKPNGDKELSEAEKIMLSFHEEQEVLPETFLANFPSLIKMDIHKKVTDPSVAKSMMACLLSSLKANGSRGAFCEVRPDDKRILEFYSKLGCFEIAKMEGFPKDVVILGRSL
Description: The assay is based on the inhibition of the hydrolysis of fluorescein mono-β-D-N-Acetyl-Glucosamine (FM-GlcNAc) (Mariappa et al. 2015, Biochem J 470:255) by the recombinant human Meningioma Expressed Antigen 5 (MGEA5), also referred to as O-GlcNAcase (OGA). The hydrolysis FM-GlcNAc (Marker Gene technologies, cat # M1485) results in the formation of B-D-N-glucosamineacetate and fluorescein. The fluorescence of the latter can be measured at excitation wavelength 485 nm and emission wavelength 538 nm. An increase in enzyme activity results in an increase in fluorescence signal. Full length OGA enzyme was purchased at OriGene (cat # TP322411). The enzyme was stored in 25 mM Tris.HCl, pH 7.3, 100 mM glycine, 10% glycerol at −20° C. Thiamet G and GlcNAcStatin were tested as reference compounds (Yuzwa et al. 2008 Nature Chemical Biology 4:483; Yuzwa et al. 2012 Nature Chemical Biology 8:393). The assay was performed in 200 mM Citrate/phosphate buffer supplemented with 0.005% Tween-20. 35.6 g Na2HPO4 2 H2O (Sigma, # C0759) were dissolved in 1 L water to obtain a 200 mM solution. 19.2 g citric acid (Merck, # 1.06580) was dissolved in 1 L water to obtain a 100 mM solution. pH of the sodium phosphate solution was adjusted with the citric acid solution to 7.2. The buffer to stop the reaction consists of a 500 mM Carbonate buffer, pH 11.0. 734 mg FM-GlcNAc were dissolved in 5.48 mL DMSO to obtain a 250 mM solution and was stored at −20° C. OGA was used at 2 nM concentration and FM-GlcNAc at a 100 uM final concentration. Dilutions were prepared in assay buffer.
50 nl of a compound dissolved in DMSO was dispensed on Black Proxiplate™ 384 Plus Assay plates (Perkin Elmer, #6008269) and 3 μl fl-OGA enzyme mix added subsequently. Plates were pre-incubated for 60 min at room temperature and then 2 μl FM-GlcNAc substrate mix added. […] Plates were briefly centrifuged for 1 min at 1000rpm and incubate at room temperature for 6 h. To stop the reaction 5 μl STOP buffer were added and plates centrifuge again 1 min at 1000 rpm.
Fluorescence was quantified in the Thermo Scientific Fluoroskan Ascent or the PerkinElmer EnVision with excitation wavelength 485 nm and emission wavelength 538 nm.
For analysis a best-fit curve is fitted by a minimum sum of squares method. From this an IC50 value and Hill coefficient was obtained. High control (no inhibitor) and low control (saturating concentrations of standard inhibitor) were used to define the minimum and maximum values.

OGA = target: T2, OGA (Homo sapiens, UniProt O60502); assay: OGA cellular assay (ICC detection of O-GlcNAcylated proteins in HEK293 cells inducible for P301L mutant human Tau); type: cell-based; settings: 6 hours incubation; for EC50: read-out: CELLULAR hOGA, pEC50 (converted)
T2 construct: HEK293 cells inducible for P301L mutant human Tau (isoform 2N4R) were established at Janssen; endogenous in cells; host or cells: HEK293 cells inducible for P301L mutant human Tau (2N4R)
T2 sequence (O60502 1-916): T1 sequence (O60502 1-916)
Method: HEK293 cells inducible for P301L mutant human Tau (isoform 2N4R) were established at Janssen. Thiamet-G was used for both plate validation (high control) and as reference compound (reference EC50 assay validation). OGA inhibition is evaluated through the immunocytochemical (ICC) detection of O-GlcNAcylated proteins by the use of a monoclonal antibody (CTD110.6; Cell Signaling, #9875) detecting O-GlcNAcylated residues as previously described (Dorfmueller et al. 2010 Chemistry & biology, 17:1250). Inhibition of OGA will result in an increase of O-GlcNAcylated protein levels resulting in an increased signal in the experiment. Cell nuclei are stained with Hoechst to give a cell culture quality control and a rough estimate of immediate compounds toxicity, if any. ICC pictures are imaged with a Perkin Elmer Opera Phenix plate microscope and quantified with the provided software Perkin Elmer Harmony 4.1.
Cells were propagated in DMEM high Glucose (Sigma, #D5796) following standard procedures. 2 days before the cell assay cells are split, counted and seeded in Poly-D-Lysine (PDL) coated 96-wells (Greiner, #655946) plate at a cell density of 12,000 cells per cm^2 (4,000 cells per well) in 100 µl of Assay Medium (Low Glucose medium is used to reduce basal levels of GlcNAcylation) (Park et al. 2014 The Journal of biological chemistry 289:13519). At the day of compound test medium from assay plates was removed and replenished with 90 μl of fresh Assay Medium. 10 μl of compounds at a 10 fold final concentration were added to the wells. Plates were centrifuged shortly before incubation in the cell incubator for 6 hours. DMSO concentration was set to 0.2%. Medium is discarded by applying vacuum. For staining of cells medium was removed and cells washed once with 100 μl D-PBS (Sigma, #D8537). From next step onwards unless other stated assay volume was always 50 μl and incubation was performed without agitation and at room temperature. Cells were fixed in 50 μl of a 4% paraformaldehyde (PFA, Alpha aesar, # 043368) PBS solution for 15 minutes at room temperature. […] Before analysis samples were washed 2 times manually for 5 minutes in ICC base buffer.
Imaging is performed using Perkin Elmer Phenix Opera using a water 20× objective and recording 9 fields per well. Intensity readout at 488 nm is used as a measure of O-GlcNAcylation level of total proteins in wells. To assess potential toxicity of compounds nuclei were counted using the Hoechst staining. IC50-values are calculated using parametric non-linear regression model fitting. As a maximum inhibition Thiamet G at a 200 uM concentration is present on each plate. In addition, a concentration response of Thiamet G is calculated on each plate.

CC(=O)Nc1ncc(CN2CCC3(CCN(c4ncc(C)cc4C)C3)C2)s1 (stereo not shown) [Product 49]
ENZYMATIC hOGA; pIC50 [1]: 8.41 | Emax [1]: 99.6% | Emax (OGA): 88.8% | EC50 (OGA): 45.7 nM

CC(=O)Nc1ncc(CN2CCC3(CCN(c4cc(C)cnc4C)C3)C2)s1 (stereo not shown) [Product 50]
Emax [1]: 101% | IC50 [1]: 25.1 nM | Emax (OGA): 87.8% | EC50 (OGA): 186 nM

CC(=O)Nc1ncc(CN2CCC3(CCN(c4cnc(C)c(C)c4)C3)C2)s1 (stereo not shown) [Product 51]
Emax [1]: 100% | IC50 [1]: 8.51 nM | Emax (OGA): 93% | EC50 (OGA): 123 nM

CC(=O)Nc1ncc(CN2CCC3(CCN(c4ccnc(C)c4)C3)C2)s1 (stereo not shown) [Product 52]
Emax [1]: 100% | IC50 [1]: 16.2 nM | Emax (OGA): 73.7% | EC50 (OGA): 209 nM

CC(=O)Nc1ncc(CN2CCC3(CCN(c4ccc(C)nc4C#N)C3)C2)s1 (stereo not shown) [Product 57]
Emax [1]: 101% | IC50 [1]: 26.3 nM | Emax (OGA): 56.1% | EC50 (OGA): 794 nM

COc1cc(N2CCC3(CCN(Cc4cnc(NC(C)=O)s4)C3)C2)cc(C)n1 (stereo not shown) [Product 58]
Emax [1]: 102% | IC50 [1]: 5.89 nM | Emax (OGA): 86.3% | EC50 (OGA): 56.2 nM

CCOc1cc(N2CCC3(CCN(Cc4cnc(NC(C)=O)s4)C3)C2)cc(C)n1 (stereo not shown) [Product 59]
Emax [1]: 100% | IC50 [1]: 3.63 nM | Emax (OGA): 84.4% | EC50 (OGA): 39.8 nM

CC(=O)Nc1ncc(CN2CCC3(CCN(c4c(C)cncc4C)C3)C2)s1 (stereo not shown) [Product 60]
Emax [1]: 100% | IC50 [1]: 52.5 nM | Emax (OGA): 88.9% | EC50 (OGA): 148 nM

CC(=O)Nc1ncc(CN2CCC3(CCN(c4cc(C)c(C)cn4)C3)C2)s1 (stereo not shown) [Product 61]
Emax [1]: 102% | IC50 [1]: 28.2 nM | Emax (OGA): 94.6% | EC50 (OGA): 117 nM

CC(=O)Nc1ncc(CN2CCC3(CCN(c4cc(C(F)(F)F)cc(C)n4)C3)C2)s1 (stereo not shown) [Product 62]
Emax [1]: 100% | IC50 [1]: 42.7 nM | Emax (OGA): 22.2% | EC50 (OGA): > 1000 nM

COc1cc(N2CCC3(CCN(Cc4cnc(NC(C)=O)s4)C3)C2)ccn1 (stereo not shown) [Product 63]
Emax [1]: 102% | IC50 [1]: 6.92 nM | Emax (OGA): 75.1% | EC50 (OGA): 219 nM

CCc1cc(N2CCC3(CCN(Cc4cnc(NC(C)=O)s4)C3)C2)cc(C)n1 (stereo not shown) [Product 64]
Emax [1]: 101% | IC50 [1]: 9.12 nM | Emax (OGA): 62.6% | EC50 (OGA): 251 nM

CC(=O)Nc1ncc(CN2CCC3(CCN(c4ccnc(C(F)(F)F)c4)C3)C2)s1 (stereo not shown) [Product 65]
Emax [1]: 101% | IC50 [1]: 26.3 nM | Emax (OGA): 56.8% | EC50 (OGA): 724 nM
